Source: article PMC6337475, “Optimization of Sequence, Display, and Mode of Operation of IgG-Binding Peptide Ligands to Develop Robust, High-Capacity Affinity Adsorbents That Afford High IgG Product Quality” (International Journal of Molecular Sciences, 2019)
Non-standard residues stand in square brackets, D forms with d. No end group written: not given here. Cit = NC(=O)NCCC[C@H](N)C(=O)O

What was measured:
[1] = tested on: human polyclonal IgG; experiment: Batch adsorption isotherm (Langmuir fit); type: binding; details: peptide-TREN-WB resin, 0.1-12 mg/mL IgG in PBS pH 7.4, 2 h, room temperature, UV 280 nm
Description: The IgG-binding affinity of the ligand variants was initially measured via batch adsorption studies. Briefly, aliquots of peptide-TREN-WB resin were incubated with solutions of IgG in PBS in a range of concentration between 0.1 and 12 mg/mL; as the binding equilibrium was reached, the amount of IgG adsorbed on each resin aliquot was calculated based on the equilibrium concentration of IgG in solution, and the corresponding values were fitted to the Langmuir model: q=QmaxC/KD+C where in KD is the dissociation constant and Qmax the equilibrium binding capacity.
The adsorption of human polyclonal IgG by the HWRGWV-WB resins was measured at room temperature in a set of batch adsorption experiments. The resin was equilibrated with PBS, pH 7.4, and transferred into fritted tubes (50 µL of resin slurry per tube). Lyophilized IgG was dissolved in PBS, pH 7.4, at different concentrations ranging from 0.1 to 12 mg/mL. A volume of 1 mL of IgG solution was incubated with each of the resin aliquots for two hours, at room temperature, and under mild agitation. The supernatants were collected and quantified by UV-absorbance at 280 nm to determine the amount of IgG adsorbed by the resin and the corresponding equilibrium concentration of unbound IgG in solution, and the resulting data were fitted to a Langmuir isotherm.

[2] = tested on: DNA; experiment: DNA clearance (Quant-IT PicoGreen) in IgG1 purification from CHO supernatant; set-up: species or system Chinese Hamster Ovary (CHO); details: washing buffer PBS, pH 7.4; elution 0.1 M Na-acetate pH 4.5; TREN-WB adsorbent
Description: (§1) Further, the chromatographic fractions were analyzed using a HCP ELISA kit and a Quant-IT Picogreen dsDNA assay kit to determine the levels of host cell proteins (HCPs) and DNA, respectively.
The chromatographic fractions were first diafiltered against 10 mM Tris–HCl pH 7.5, using Amicon® centrifugal filters (3000 MWCO Millipore, Bedford, MA, USA). The DNA content in the fractions was determined by pico green assay using Quant-IT Picogreen dsDNA assay kit from Thermo Fisher Scientific (Philadelphia, PA, USA). Quantification was done as per the manufacturer’s protocol.

[3] = tested on: CHO host cell proteins (HCPs); experiment: Host cell protein clearance (HCP ELISA) in IgG1 purification from CHO supernatant; set-up: species or system Chinese Hamster Ovary (CHO); details: for HCP LRV: elution 0.1 M Na-acetate pH 4.5, TREN-WB adsorbent
Description: as §1
(§2) In this work, we have investigated the effect of pH of the elution buffer on the performance of HWRGWV-TREN-WB resin with a therapeutic monoclonal IgG1. Specifically, 0.1 M acetate buffer was used as a milder elution buffer (pH 4–5), while 0.1 M glycine HCl buffer was used for low pH elution (pH 2.5). The performance of the different buffers was evaluated in terms of HCP LRV in the eluted fraction, whose values are reported in Figure 5. The HCP clearance decreases at lower elution pH, which is however needed to ensure sufficient IgG yield. At pH 5, where a HCP LRV of 1.18 is obtained, only 75% of the bound IgG is eluted. […] Therefore, acetate buffer pH 4.5 was selected as elution buffer, as it offers the best combination of yield and purity.
The majority of CHO HCPs are acidic in nature and have an overall negative charge at the physiological conditions (PBS pH 7.4). Their non-specific binding to the positively charged ligand (the net charge of HWRGWV at pH 7 is +1.1) is likely of electrostatic nature. In order to lower the non-specific capture of HCPs, pre-elution wash conditions were optimized by exploring different compositions and pH values of the washing buffer. Specifically, the following conditions were utilized, 0.2 M sodium phosphate pH 6, 0.2 M sodium phosphate pH 7, PBS pH 7.4, 1 M NaCl in PBS at pH 7.4, and 0.1 M Tris HCl pH 9.
The host cell protein contents of the chromatographic fractions were determined using HCP ELISA kits from Cygnus Technologies (Southport, NC, USA). The high sensitivity protocol described by the manufacturer was used in the analysis. Briefly, the anti-CHO-coated microtiter wells were filled with 100 μL of standards and samples, and incubated on a rotator at 200 rpm for 1 h at room temperature. The wells were then washed three times with 300 μL washing buffer, and 100 μL of HRP-labeled anti-CHO antibody was added to each of the wells. After rinsing the wells, 100 μL of 3,3′,5,5′ tetramethyl benzidine (TMB) substrate solution was added to each well for 30 min at room temperature. The reaction was terminated by adding 100 μL of 0.5 M sulphuric acid. The amount of hydrolyzed substrate was measured by μQuant Microplate reader (BioTek Inc., Winooski, VT, USA) at 450 nm. A 4-parameter logistic fit was used to calculate the HCP (ng/mL) content in the chromatographic fractions. The HCP values determined in terms of ng/mL were converted into ng/mg of MAb to account for the dilution of fractions. The log reduction value (LRV) was determined as the log10 of the ratio of HCP in the load to the HCP in the elution fractions.

[4] = tested on: IgG; details: preliminary studies; cited from earlier work
From the text: In this work the peptide and peptide variants have been conjugated to Workbeads base resin at varying ligand densities ...

[5] = tested on: Fc region of IgG; details: cited from earlier work
From the text: Several chromatographic and non-chromatographic techniques have been proposed for the purification of Mabs, fc fusion proteins and bispecifics including efforts towards identifying alternatives to Protein A-based chromatography. While being regarded as the standard for antibody purification owing to their high affinity and selectivity, these ligands present limitations, including high cost and the potential release of immunogenic fragments. An additional issue with Protein A concerns the presence of antibody aggregates in eluted fraction and their poor selectivity ...

[6] = tested on: polyclonal human IgG (monomer and aggregates); experiment: Aggregate removal from heat-treated polyclonal IgG, SEC; details: 1 mg/mL IgG incubated 60 °C 10 min; PBS wash; elution pH 4.5; SEC (TSKgel G3000SW)
Description: The ability of HWRGWVC-TREN-WB to remove aggregates was further tested by using a polyclonal IgG solution. The formation of aggregates was induced by incubating a 1 mg/mL IgG solution at 60 °C for 10 min. The IgG solution containing aggregates was loaded onto the HWRGWVC-TREN-WB resin, followed by washing with PBS and elution at pH 4.5.
Further, a feed sample containing monomeric and aggregated polyclonal IgG was produced by incubating a 1 mg/mL solution of human IgG at 60 °C for 10 min. The solution was loaded onto the HWRGWVC-TREN-WB resin, followed by washing with PBS and elution at pH 4.5. The collected fractions were analyzed by size exclusion chromatography (SEC) using a TSKgel G3000SW column to determine the ratio of monomeric vs. aggregated IgG in both flow-through and elution fractions.

[7] = tested on: therapeutic monoclonal IgG1; experiment: Purification of monoclonal IgG1 from CHO cell culture supernatant: yield, loss and purity; details: SDS-PAGE
Description: To evaluate the effect of the spacer arm on the purity of the eluted product, the HWRGWV-WB adsorbents constructed with different spacer arms were utilized to purify a monoclonal IgG1 from a CHO cell culture supernatant. […] The collected fractions were analyzed by size exclusion chromatography to measure product yield (Table 2), and by SDS-PAGE to determine the overall product purity by densitometric analysis (Figure 4).
as §1, §2

| Qmax (equilibrium binding capacity) [1] [mg·IgG/mL Adsorbent] | Substance | DNA LRV [2] | HCP LRV ([3]; washing buffer PBS, pH 7.4) | IgG binding capacity on agarose WorkBeads ACT [4] | binding region on IgG [5] | selective capture of monomeric IgG vs aggregates [6] | HCP LRV ([3]; washing buffer 0.1 M Tris HCl, pH 9) | HCP removal during washing ([3]; washing buffer 0.2 M sodium phosphate at either pH 6 or 7) | HCP LRV ([3]; washing buffer 1 M NaCl in PBS, pH 7.4) | loss of IgG in washing buffer ([7]; wash 0.1 M Tris HCl, pH 9) | loss of IgG in washing buffer ([7]; wash 1 M NaCl in PBS pH 7.4) |
| --- | --- | --- | --- | --- | --- | --- | --- | --- | --- | --- | --- |
| 72 | Ac-HWRGWV [N-terminally acetylated variant of HWRGWV, tested as TREN-WB resin] | ~4 | 1.38 | – | – | – | – | – | – | – | – |
| 85 | HWRGWV [tested as TREN-WB resin, coupled as HWRGWVC] | ~4 | 1.04 | higher IgG binding capacity as compared to polymethcarylate base resin | binds the Fc region of IgG | bind only monomeric IgG | 1.39 | did not afford any HCP removal during washing | 1.22 | – | – |
| – | HWRGWVC [peptide HWRGWV with C-terminal cysteine, conjugated through its thiol group to iodoacetyl-WB resin] | – | – | – | – | – | – | – | – | not observed | minor loss of IgG in the washing buffer |
| 49 | HW[Cit]GWV | ~4 | 1.58 | – | – | – | – | – | – | – | – |
